Assay results from patent US7807676B2, “Diketo-Piperazine and Piperidine derivatives as antiviral agents” (priority 2006, dated 2010).
Structures can show the parent of a compound that is named as a salt.

Test system: HIV-1 single-round infectious reporter virus
Experiment: Single-round infectious HIV-1 luciferase reporter virus infection of HeLa CD4 cells (antiviral EC50)
Type: cell-based
Settings: Human immunodeficiency virus 1, HeLa, read-out: EC50 Group from Table 3
How it was run: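 Env-pseudotyped single-round HIV-1 reporter virus (env-deleted provirus with luciferase in place of nef, made in 293 cells) infected HeLa CD4 cells at MOI ~0.01 with compound present, up to 10 μM final. Luciferase luminescence read after 72 h at 37 °C; EC50 from four-parameter logistic fit of % inhibition over 10 concentrations.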

| Structure (SMILES) | EC50 [nM] |
| --- | --- |
| COc1cnc(-c2cc(CNCCc3ccncc3)[nH]n2)c2[nH]cc(C(=O)C(=O)N3CCN(c4nnnn4-c4ccccc4)CC3)c12 [B-27, 1-(4-methoxy-7-(5-((2-(pyridin-4-yl)ethylamino)methyl)-1H-pyrazol-3-yl)-1H-pyrrolo[2,3-c]pyridin-3-yl)-2-(4-(1-phenyl-1H-tetrazol-5-yl)piperazin-1-yl)ethane-1,2-dione TFA] | < 500 |
| CCOC(=O)CCCCCCC(=O)c1cccnc1N1CCN(C(=O)C(=O)c2c[nH]c3c(-n4ccnn4)ncc(F)c23)CC1 [D-44] | > 500 |
| COc1cnc(-c2ccn(CC(=O)O)n2)c2[nH]cc(C(=O)C(=O)N3CCN(c4nnnn4-c4ccccn4)CC3)c12 [B-75] | < 500 |
| COc1cnc(-n2cnc(C)n2)c2[nH]cc(C(=O)C(=O)N3CCN(c4nncn4-c4ccccc4)CC3)c12 [A-44] | < 500 |
| COc1cnc(-c2cc(C(=O)NCCN3CCOCC3)[nH]n2)c2[nH]cc(C(=O)C(=O)N3CCN(c4nnnn4-c4ccccc4)CC3)c12 [B-13, 3-(4-methoxy-3-(2-oxo-2-(4-(1-phenyl-1H-tetrazol-5-yl)piperazin-1-yl)acetyl)-1H-pyrrolo[2,3-c]pyridin-7-yl)-N-(2-morpholinoethyl)-1H-pyrazole-5-carboxamide.TFA] | < 500 |
| CC(=O)c1ncc(F)c2c(C(=O)C(=O)N3CCN(c4nnnn4-c4ccccc4)CC3)c[nH]c12 [B-47] | < 500 |
| O=C(NCCO)c1cc(-c2ncc(F)c3c(C(=O)C(=O)N4CCN(c5c[nH]nc5-c5ccccc5)CC4)c[nH]c23)n[nH]1 [B-52] | < 500 |
| COc1cnc(-c2cc(CN(C)CCN(C)C)[nH]n2)c2[nH]cc(C(=O)C(=O)N3CCN(c4nnnn4-c4ccccc4)CC3)c12 [B-26, 1-(7-(5-(((2-(dimethylamino)ethyl)(methyl)amino)methyl)-1H-pyrazol-3-yl)-4-methoxy-1H-pyrrolo[2,3-c]pyridin-3-yl)-2-(4-(1-phenyl-1H-tetrazol-5-yl)piperazin-1-yl)ethane-1,2-dione TFA] | < 500 |
| COc1cnc(-n2cnc(C)n2)c2[nH]cc(C(=O)C(=O)N3CCN(c4nc(S(C)(=O)=O)nn4-c4ccccc4)CC3)c12 [G-28b] | < 500 |
| CCOC(=O)c1cccnc1N1CCN(C(=O)C(=O)c2c[nH]c3c(-n4cnc(C)n4)ncc(OC)c23)CC1 [D-8] | < 500 |
| COc1cnc(-n2cnc(C)n2)c2[nH]cc(C(=O)C(=O)N3CCN(c4nnnn4-c4ncco4)CC3)c12 [E-7] | < 500 |
| COc1cnc(-n2cnc(C)n2)c2[nH]cc(C(=O)C(=O)N3CCN(c4cn(CCN(C)C)nc4-c4ccccc4)CC3)c12 [G-6a] | < 500 |
| O=C(C(=O)N1CCN(c2ccnnc2-c2ccccc2)CC1)c1c[nH]c2c(-n3ccnn3)ncc(F)c12 [G-15a] | < 500 |
| COc1cnc(-c2cncc(F)c2)c2[nH]cc(C(=O)C(=O)N3CCN(c4nnnn4-c4ccccn4)CC3)c12 [H-1] | < 500 |
| Cn1nc(-c2ncc(F)c3c(C(=O)C(=O)N4CCN(c5nnnn5-c5ccccc5)CC4)c[nH]c23)cc1C(=O)NCCO [B-44] | < 500 |
| O=C(C(=O)N1CCN(c2nnnn2-c2ccccc2)CC1)c1c[nH]c2c(-c3cc(C(=O)N4CCCC(O)C4)[nH]n3)ncc(F)c12 (centres unmarked) [F-11] | < 500 |
| COc1cnc(-c2cc(CNCCN(C)C)[nH]n2)c2[nH]cc(C(=O)C(=O)N3CCN(c4nnnn4-c4ccccc4)CC3)c12 [B-25, 1-(7-(5-((2-(dimethylamino)ethylamino)methyl)-1H-pyrazol-3-yl)-4-methoxy-1H-pyrrolo[2,3-c]pyridin-3-yl)-2-(4-(1-phenyl-1H-tetrazol-5-yl)piperazin-1-yl)ethane-1,2-dione TFA] | < 500 |
| COc1ccnc2[nH]cc(C(=O)C(=O)N3CCN(c4nnnn4-c4ccccc4)CC3)c12 [A-11] | < 500 |
| COc1cnc(-c2ccc(N3CCN(C(=O)OC(C)(C)C)CC3)cc2)c2[nH]cc(C(=O)C(=O)N3CCN(c4nnnn4-c4ccccn4)CC3)c12 [B-81] | < 500 |
| O=C(C(=O)N1CCN(c2nnnn2-c2ccccc2)CC1)c1c[nH]c2c(-n3ccnn3)ncc(F)c12 [A-5] | < 500 |
